Results: ChEMBL document CHEMBL1142522, “Hedgehog/GLI-mediated transcriptional inhibitors from Zizyphus cambodiana” (Bioorg Med Chem, 2008)
Active and inactive are the calls of the source. The rule behind the calls is not given here.

Tests used:
[1] = Cytotoxicity against mouse C3H10T1/2 cells after 24 hrs by fluorometric microculture cytotoxicity assay; assay type: cell-based; settings: C3H 10T1/2, 24 h
[2] = test system: DU-145; assay: Cytotoxicity against human DU145 cells after 24 hrs by fluorometric microculture cytotoxicity assay; assay type: functional, cell-based; settings: DU-145, 24 h
[3] = test system: PANC-1; assay: Cytotoxicity against human PANC1 after 24 hrs by fluorometric microculture cytotoxicity assay; assay type: functional, cell-based; settings: PANC-1, 24 h
[4] = target: T1, Zinc finger protein GLI1 (Homo sapiens) (UniProt P08151); assay: Inhibition of GLI1-mediated transcriptional activity in human HaCaT cells by luciferase based reporter gene assay; assay type: cell-based
T1 sequence (whole entry): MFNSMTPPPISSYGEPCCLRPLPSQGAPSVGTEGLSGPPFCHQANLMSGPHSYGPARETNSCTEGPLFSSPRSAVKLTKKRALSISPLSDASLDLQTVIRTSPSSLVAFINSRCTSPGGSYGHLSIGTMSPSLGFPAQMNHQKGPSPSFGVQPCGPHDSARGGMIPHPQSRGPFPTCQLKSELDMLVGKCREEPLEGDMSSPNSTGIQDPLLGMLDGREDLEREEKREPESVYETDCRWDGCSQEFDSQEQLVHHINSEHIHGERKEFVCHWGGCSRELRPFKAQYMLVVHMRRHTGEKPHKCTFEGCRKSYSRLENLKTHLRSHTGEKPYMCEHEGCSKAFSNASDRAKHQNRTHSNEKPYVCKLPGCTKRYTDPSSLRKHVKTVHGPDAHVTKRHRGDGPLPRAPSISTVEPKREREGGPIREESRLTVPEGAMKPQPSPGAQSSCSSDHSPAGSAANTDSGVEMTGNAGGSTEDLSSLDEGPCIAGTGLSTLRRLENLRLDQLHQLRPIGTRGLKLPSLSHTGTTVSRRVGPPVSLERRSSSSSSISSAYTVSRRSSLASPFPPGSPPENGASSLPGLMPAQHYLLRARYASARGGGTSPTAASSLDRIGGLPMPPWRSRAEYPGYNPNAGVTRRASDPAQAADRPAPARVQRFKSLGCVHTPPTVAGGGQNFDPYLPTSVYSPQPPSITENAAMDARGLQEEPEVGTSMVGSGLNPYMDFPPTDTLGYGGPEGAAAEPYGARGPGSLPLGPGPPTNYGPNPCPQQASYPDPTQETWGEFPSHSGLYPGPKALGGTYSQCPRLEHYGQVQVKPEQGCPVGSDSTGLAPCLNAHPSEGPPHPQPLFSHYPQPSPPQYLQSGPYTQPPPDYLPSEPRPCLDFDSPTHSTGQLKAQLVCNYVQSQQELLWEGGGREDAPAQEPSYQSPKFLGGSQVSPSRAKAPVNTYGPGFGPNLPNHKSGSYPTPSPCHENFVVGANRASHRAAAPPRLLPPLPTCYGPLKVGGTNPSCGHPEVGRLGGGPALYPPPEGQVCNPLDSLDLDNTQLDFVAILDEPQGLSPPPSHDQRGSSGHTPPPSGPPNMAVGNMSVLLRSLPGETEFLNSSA

[5] = test system: HaCaT; assay: Decrease in GLI1 protein expression in human HaCaT cells by Western blot; assay type: functional, cell-based
[6] = target: T1, Zinc finger protein GLI1 (Homo sapiens); assay: Effect on Hh/GLI-mediated transcription in human PANC1 assessed as decrease in […] protein expression by Western blot; assay type: cell-based; settings: PANC-1
[7] = target: T1, Zinc finger protein GLI1 (Homo sapiens); assay: Effect on Hh/GLI-mediated transcription in human PANC1 assessed as decrease in BCL2 protein expression by Western blot; assay type: cell-based; settings: PANC-1
[8] = target: T1, Zinc finger protein GLI1 (Homo sapiens); assay: Effect on Hh/GLI-mediated transcription in human HaCaT cells assessed as reduction of BCL2 protein expression by Western blot; assay type: cell-based
[9] = target: T1, Zinc finger protein GLI1 (Homo sapiens); assay: Effect on Hh/GLI-mediated transcription in human HaCaT cells assessed as reduction of PTCH protein expression by Western blot; assay type: cell-based
[10] = test system: DU-145; assay: Cytotoxicity against human DU145 cells at 100 uM after 24 hrs by fluorometric microculture cytotoxicity assay; assay type: functional, cell-based
[11] = test system: PANC-1; assay: Cytotoxicity against human PANC1 at 100 uM after 24 hrs by fluorometric microculture cytotoxicity assay; assay type: functional, cell-based
[12] = target: T1, Zinc finger protein GLI1 (Homo sapiens); assay: Inhibition of GLI-mediated […] mRNA production in human PANC1 cells by RT-PCR analysis; assay type: cell-based; settings: PANC-1

C=C(C)[C@@H]1CC[C@]2(C(=O)O)CC[C@]3(C)[C@H](CC[C@@H]4[C@@]5(C)C[C@@H](O)[C@H](O)C(C)(C)[C@@H]5CC[C@]43C)[C@@H]12 [ALPHITOLIC ACID]
IC50 [1]: 145 µM | IC50 [2]: 70 µM | IC50 [3]: 41 µM | Activity [4]: Dose-dependent effect

C=C(C)[C@@H]1CC[C@]2(C(=O)O)CC[C@]3(C)[C@H](CC[C@@H]4[C@@]5(C)CC[C@H](O)C(C)(C)[C@@H]5CC[C@]43C)[C@@H]12 [BETULINIC ACID]
IC50 [1]: 82 µM | Activity [5]: Active | Activity [6]: Active | IC50 [2]: 37 µM | Activity [7]: Active | Activity [8]: Active | Activity [9]: Active | IC50 [3]: 44 µM | Activity [4]: Dose-dependent effect

C=C(C)[C@@H]1CC[C@]2(C(=O)O)CC[C@]3(C)[C@H](CC[C@@H]4[C@@]5(C)[C@H](CO)[C@@H](O)C(C)(C)[C@@H]5CC[C@]43C)[C@@H]12 [CEANOTHANOLIC ACID]
IC50 [1]: > 200 µM | Activity [10]: inactive | IC50 [2]: > 200 µM | Activity [11]: inactive | IC50 [3]: > 200 µM

C=C(C)[C@@H]1CC[C@]2(C(=O)O)CC[C@]3(C)[C@H](CC[C@@H]4[C@@]5(C)[C@@H](C(=O)O)[C@H](O)C(C)(C)[C@@H]5CC[C@]43C)[C@@H]12 [CEANOTHIC ACID]
IC50 [1]: > 200 µM | Activity [10]: inactive | IC50 [2]: > 200 µM | Activity [11]: inactive | IC50 [3]: 195 µM

C=C(C)[C@@H]1CC[C@]2(C(=O)O)CC[C@]3(C)[C@H](CC[C@@H]4[C@@]5(C)[C@H](C=O)[C@@H](O)C(C)(C)[C@@H]5CC[C@]43C)[C@@H]12 [COLUBRINIC ACID]
IC50 [1]: 167 µM | Activity [6]: Active | IC50 [2]: 78 µM | Activity [7]: Active | Activity [12]: Dose-dependent effect | Activity [8]: Dose-dependent effect | Activity [9]: Dose-dependent effect | IC50 [3]: 43 µM | Activity [4]: Dose-dependent effect
